Measured values: US20040092485A1, “Ascorbic acid 2-phosphate metal salt with low calcium content” (priority 2001, published 2004)
Where a name gives a salt, the structure may show the parent alone.

Tests used:
[1] = In-solution Stability Test 1 (clouding by eye in citrate/citric acid, glycerol·1,3-butylene glycol·ethanol, water solution); format: physicochemical; design: key to In-solution Stability Test 1 Room Temperature (20° C.) / In-solution Stability Test 1 50° C.: A: No clouding; B: Clouded; Distinguished Clouding; details: for In-solution Stability Test 1 50° C.: left standing at 50° C. for 10 days; for In-solution Stability Test 1 50° C. / In-solution Stability Test 1 Room Temperature (20° C.): 2 g sample, 16 g mixed solution, clouding state observed by eye; for In-solution Stability Test 1 Room Temperature (20° C.): left standing at room temperature (20° C.) for 1 month
Method: In-solution Stability Test 1
(§1) Into a 200 ml-volume Erlenmeyer flask, 2 g of a sample (APM), 0.4 g of sodium citrate dihydrate and 0.05 g of citric acid were charged. Thereto, 16 g of glycerol·1,3-butylene glycol·ethanol mixed solution (volume ratio: 3:5:8) was added and the resulting solution was stirred for 30 minutes. Thereto, 82 g of pure water was added and the resulting solution was further stirred for 2 hours. After filtering this solution through a filter, a half amount was left standing at room temperature (20° C.) for 1 month and the remaining half amount was left standing at 50° C. for 10 days.

[2] = In-solution Stability Test 2 (clouding by eye in citrate/citric acid, glycerol·1,3-butylene glycol·ethanol, water solution); format: physicochemical; design: key to In-solution Stability Test 2 Room Temperature (20° C.) / In-solution Stability Test 2 50° C.: A: No clouding; B: Clouded; Distinguished Clouding; details: for In-solution Stability Test 2 50° C.: left standing at 50° C. for 10 days; for In-solution Stability Test 2 50° C. / In-solution Stability Test 2 Room Temperature (20° C.): 2 g sample, 15 g mixed solution, clouding state observed by eye; for In-solution Stability Test 2 Room Temperature (20° C.): left standing at room temperature (20° C.) for 1 month
Method: In-solution Stability Test 2
as §1, with “charged. Thereto, 15 g of” for “charged. Thereto, 16 g of”, “3:5:8) was charged and the” for “3:5:8) was added and the”, “added and further stirred” for “added and the resulting solution was further stirred”

[3] = temperature not specified in the sentence (whole test)

| Structure (SMILES) | In-solution Stability Test 1 50° C. [1] | In-solution Stability Test 1 Room Temperature (20° C.) [1] | clouding in in-solution stability test 1 [1, 3] | In-solution Stability Test 2 50° C. [2] | In-solution Stability Test 2 Room Temperature (20° C.) [2] | clouding in in-solution stability test 2 [2, 3] | clouding in in-solution stability test 1 ([1]; 50° C.) | clouding in in-solution stability test 1 ([1]; room temperature (20° C.)) | clouding in in-solution stability test 2 ([2]; 50° C.) | clouding in in-solution stability test 2 ([2]; room temperature (20° C.)) |
| --- | --- | --- | --- | --- | --- | --- | --- | --- | --- | --- |
| O=C1O[C@H]([C@@H](O)CO)C(O)=C1OP(=O)(O)O [Example 1, L-ascorbic acid 2-phosphate magnesium salt] | A | A | clouding was not observed | A | A | clouding was not observed | – | – | – | – |
| O=C1O[C@H]([C@@H](O)CO)C(O)=C1OP(=O)([O-])[O-].[Mg+2] [Comparative Example 1, L-ascorbic acid 2-phosphate magnesium salt] | C | B | – | C | B | – | more distinguished clouding was observed | clouding was observed | more distinguished clouding was observed | clouding was observed |
| O=C1O[C@H]([C@@H](O)CO)C(O)=C1OP(=O)([O-])[O-].[Mg+2] [Comparative Example 2, L-ascorbic acid 2-phosphate magnesium salt] | C | B | – | C | C | – | more distinguished clouding was observed | clouding was observed | distinguished clouding was observed | distinguished clouding was observed |
